In the C3SDB collision cross section collection:
Where “and” joins values, the source holds several entries; their conditions need not be identical. Equal entries are not always repeated.

Columns and labels:
[1] = instrument: DT, single field, calibrated with Agilent tune mix (Agilent)
[2] = instrument: DT, stepped-field

| SMILES | collision cross section (N2) ([2]; [M+H]+) | collision cross section (N2) ([2]; [M+Na]+) | also measured |
| --- | --- | --- | --- |
| Cn1cnc(CCN)c1 [1-Methylhistamine] | 122.56 Å² | – | collision cross section (N2) ([1]; [M+H]+): 121.3 Å² |
| Cn1cncc1CCN [3-Methylhistamine] | 126.53 Å² | – | collision cross section (N2) ([1]; [M+H]+): 123.8 Å² |
| C[C@]12CCC(=O)C=C1CC[C@@H]1[C@@H]2CC[C@]2(C)C(=O)CC[C@@H]12 [Androstenedione] | 183.95 Å² | 204.73 Å² | collision cross section (N2) ([1]; [M+H]+): 173.3 Å² |
| C[N+](C)(C)CCOP(=O)([O-])OP(=O)(O)OC[C@H]1O[C@@H](n2ccc(N)nc2=O)[C@H](O)[C@@H]1O [Cytidine 5'-diphosphocholine] | 198.86 Å² | 208.98 Å² | collision cross section (N2) ([1]; [M+H]+): 197.6 Å²; collision cross section (N2) ([1]; [M-H]-): 200.64 Å² |
| OC[C@H]1O[C@@H](O[C@H]2[C@H](O)[C@@H](O)[C@H](O)O[C@@H]2CO)[C@H](O)[C@@H](O)[C@H]1O [D-Lactose] | – | 178.83 Å² | collision cross section (N2) ([1]; [M+Na]+): 175.1 Å² |
| N[C@@H](CCC(=O)N[C@@H](CS)C(=O)NCC(=O)O)C(=O)O [Glutathione] | – | 168.23 Å² | collision cross section (N2) ([1]; [M+H]+): 167.4 Å² |
| OC[C@H]1O[C@H](OC[C@H]2OC(O)[C@H](O)[C@@H](O)[C@@H]2O)[C@H](O)[C@@H](O)[C@@H]1O (some centres undefined) [Isomaltose] | – | 178.02 Å² | collision cross section (N2) ([1]; [M+Na]+): 177.3 Å²; collision cross section (N2) ([1]; [M-H]-): 171.96 Å² |
| O=c1c(O)c(-c2ccc(O)cc2)oc2cc(O)cc(O)c12 [Kaempferol] | 165.99 Å² | 187.2 Å² | collision cross section (N2) ([1]; [M+H]+): 162.9 Å²; collision cross section (N2) ([1]; [M-H]-): 160.32 Å² |
| CCCC[C@H](N)C(=O)O [L-Norleucine] | 142.63 Å² | – | collision cross section (N2) ([1]; [M-H]-): 129.02 Å² |
| C[Se]CC[C@H](N)C(=O)O [L-Selenomethionine] | 137.67 Å² | – | – |
| N[C@@H](Cc1c[nH]c2ccccc12)C(=O)O [L-Tryptophan] | 154.22 Å² | – | – |
| CC(C)[C@H](N)C(=O)O [L-Valine] | 134.28 Å² | 144.07 Å² | – |
| CCCCCCCC/C=C\CCCCCCCC(=O)OC[C@@H](O)COP(=O)([O-])OCC[N+](C)(C)C [LPC 18:1] | – | 237.34 Å² | – |
| CCCCCCCCCCCCCCCC/C=C\OC[C@@H](O)COP(=O)([O-])OCC[N+](C)(C)C [LPC(p18:0)] | 236.8 Å² | 238.37 Å² | – |
| OC[C@H]1O[C@@H](O[C@@H]2[C@@H](CO)O[C@](O)(CO)[C@H]2O)[C@H](O)[C@@H](O)[C@H]1O [Lactulose] | – | 180.1 Å² | – |
| OC[C@H]1O[C@H](O[C@H]2[C@H](O)[C@@H](O)[C@@H](O[C@H]3[C@H](O)[C@@H](O)C(O)O[C@@H]3CO)O[C@@H]2CO)[C@H](O)[C@@H](O)[C@@H]1O (some centres undefined) [Maltotriose] | – | 212.54 Å² | collision cross section (N2) ([1]; [M+Na]+): 212.7 Å² |
| COc1cc(-c2[o+]c3cc(O)cc(O)c3cc2O)cc(OC)c1O [Malvidin] | – | – | collision cross section (N2) ([2]; [M]+): 178.55 Å² |
| O=c1c2cc(O)c(O)cc2oc2cc(O)c([C@@H]3O[C@H](CO)[C@@H](O)[C@H](O)[C@H]3O)c(O)c12 [Mangiferin] | 196.62 Å² | – | – |
| C=CCc1ccc(OC)c(OC)c1 [Methyleugenol] | 138.94 Å² | 160.36 Å² | – |
| CC(=O)N[C@H](Cc1c[nH]c2ccccc12)C(=O)O [N-Acetyl-D-tryptophan] | 155.67 Å² | 162.74 Å² | – |
| CC(=O)N[C@@H](CC(=O)O)C(=O)O [N-Acetyl-L-aspartic Acid] | – | 143.7 Å² | – |
| CSCC[C@H](NC=O)C(=O)O [N-Formyl-L-methionine] | – | 149.53 Å² | – |
| COc1ccc2cc([C@H](C)C(=O)O)ccc2c1 [Naproxen] | 154.83 Å² | 163.87 Å² | – |
| NC(=O)c1ccc[n+]([C@@H]2O[C@H](COP(=O)([O-])O)[C@@H](O)[C@H]2O)c1 [Nicotinamide Mononucleotide] | 167.13 Å² | – | – |
| N[C@@H](CCOC(=O)CCC(=O)O)C(=O)O [O-Succinyl-L-homoserine] | 147.46 Å² | 147.22 Å² | – |

| SMILES | collision cross section (N2) ([2]; [M+H]+) | collision cross section (N2) ([2]; [M+Na]+) | also measured |
| --- | --- | --- | --- |
| O=C(O)c1cc(=O)[nH]c(=O)[nH]1 [Orotic Acid] | 138.85 Å² | 181.87 Å² | – |
| CCCCCCCC/C=C/CCCCCCCC(=O)OC[C@H](COP(=O)(O)OC[C@@H](O)CO)OC(=O)CCCCCCC/C=C/CCCCCCCC [PG(18:1/18:1)] | 294.47 Å² and 294.81 Å² | 285.26 Å² and 289.31 Å² | – |
| CCCCCCCCCCCCCCCC(=O)O [Palmitic Acid] | – | 185.22 Å² | – |
| CC(=O)[C@H]1CC[C@H]2[C@@H]3CC=C4C[C@@H](O)CC[C@]4(C)[C@H]3CC[C@]12C [Pregnenolone] | 177.25 Å² | 216.16 Å² | collision cross section (N2) ([1]; [M+H]+): 174 Å²; collision cross section (N2) ([1]; [M-H]-): 182.86 Å² |
| CCCCC[C@H](O)/C=C/[C@H]1C(=O)C[C@H](O)[C@@H]1C/C=C\CCCC(=O)O [Prostaglandin D2] | – | 196.63 Å² | collision cross section (N2) ([1]; [M+Na]+): 192.4 Å²; collision cross section (N2) ([1]; [M-H2O-H]-): 186.17 Å² |
| CCCCC[C@H](O)/C=C/[C@H]1[C@H](O)CC(=O)[C@@H]1C/C=C\CCCC(=O)O [Prostaglandin E2] | – | 198.53 Å² | collision cross section (N2) ([1]; [M+Na]+): 196.8 Å²; collision cross section (N2) ([1]; [M-H2O-H]-): 183.57 Å² |
| CCCCC[C@@H](/C=C/[C@@H]1[C@@H](C/C=C\CCCC(=O)O)[C@@H]2C[C@H]1OO2)OO [Prostaglandin G2] | – | 199.3 Å² | – |
| COc1cc(O)c2c(=O)c(-c3ccc(O)cc3)coc2c1 [Prunetin] | 166.26 Å² | 181.44 Å² | – |
| O=C(O)c1cccnc1C(=O)O [Quinolinic Acid] | 138.98 Å² | – | – |
| CC/C=C\C[C@H](O)/C=C/C=C\C=C\C=C\[C@@H](O)[C@@H](O)C/C=C\CCC(=O)O [Resolvin D1] | – | 197.87 Å² | – |
| Cc1cc2nc3c(=O)[nH]c(=O)nc-3n(C[C@H](O)[C@H](O)[C@H](O)COP(=O)(O)O)c2cc1C [Riboflavin 5'-Monophosphate] | 201.48 Å² | 210.66 Å² | – |
| Cc1cc2nc3c(=O)[nH]c(=O)nc-3n(C[C@H](O)[C@H](O)[C@H](O)CO)c2cc1C [Riboflavin] | 192.43 Å² | 199.4 Å² | – |
| C=C(C)[C@H]1Cc2c(ccc3c2O[C@@H]2COc4cc(OC)c(OC)cc4[C@@H]2C3=O)O1 [Rotenone] | 199.63 Å² | 213.17 Å² | – |
| COc1ccc(-c2cc(=O)c3c(OC)c(OC)c(OC)c(OC)c3o2)cc1 [Tangeritin] | 187.9 Å² | 208.15 Å² | – |
| CN(C)[C@@H]1C(=O)C(C(N)=O)=C(O)[C@@]2(O)C(=O)C3=C(O)c4c(O)cccc4[C@@](C)(O)[C@H]3C[C@@H]12 [Tetracycline] | 198.48 Å² | 212.5 Å² | – |
| CCCCC[C@H](O)/C=C/[C@H]1OC(O)C[C@H](O)[C@@H]1C/C=C\CCCC(=O)O (some centres undefined) [Thromboxane B2] | – | 202.08 Å² | – |
| CC(C)[C@]12CC(=O)[C@H](C)[C@H]1C2 [Thujone] | 141.82 Å² | – | – |
| NC(=O)[C@@H]1CCCN1C(=O)[C@H](Cc1cnc[nH]1)NC(=O)[C@@H]1CCC(=O)N1 [Thyrotropin-releasing hormone] | 181 Å² | 184.12 Å² | – |
| O=c1ccc2ccc(O)cc2o1 [Umbelliferone] | – | 154.46 Å² | – |
| O=c1ccn([C@@H]2O[C@H](COP(=O)(O)O)[C@@H](O)[C@H]2O)c(=O)[nH]1 [Uridine 5'-Monophosphate] | 169.81 Å² | 175.14 Å² | – |
| O=C(O)/C=C/c1cnc[nH]1 [Urocanate] | 137.54 Å² | – | – |
| CC(C)=CCC/C(C)=C/CC/C(C)=C/CC/C(C)=C/CC1=C(C)C(=O)c2ccccc2C1=O [Vitamin K2] | 198.66 Å² | – | – |
| C[C@@H]1NC(=O)N[C@@H]1CCCCCC(=O)O [d-Desthiobiotin] | 145.78 Å² | 159.12 Å² | – |
| O=P(O)(O)OC[C@H](O)CO [sn-Glycerol 3-phosphate] | – | 142.16 Å² | – |
